What was measured:
[1] = test system: E3-STn cells; assay: E3-STn transfected murine breast tumor allograft model, tumor volume; format: in vivo, mouse; conditions: 7G9-1A8 25 mg/kg ip twice weekly 3 weeks, Paclitaxel daily 5 days
Experimental: 3 test articles were evaluated during the study.
Standard deviation values are listed in parenthesis.

[2] = Glycan array STn specificity and anti-STn antibody group; format: binding; design: key to Group: Group 1 antibodies according to the invention are antibodies capable of binding AcSTn and GcSTn; Antibodies were assigned to Group 2 based on their ability to bind STn as well as some related structures that include an O-linkage to serine or threonine; Group 3 antibodies are antibodies capable of binding STn, but may also bind a broader set of related structures; Group 4 antibodies are capable of binding to both AcSTn and GcSTn as well as the un-sialylated Tn antigen; conditions: assigned from flow cytometry and glycan array analysis
Experimental: Optimized glycan arrays comprise 71 chemically synthesized and well-defined glycans, most of which comprise Neu5Ac and Neu5Gc glycan pairs.
300 ml of epoxy blocking buffer is prepared by combining 15 ml of 2 M Tris buffer (pH 8) with 0.9 ml of 16.6 M ethanolamine and 284.1 ml of distilled water. The solution is filtered using a […] nitrocellulose membrane. The epoxy buffer solution as well as 1 L of distilled water are pre-warmed to 50° C. Glass slides are arranged in a slide holder and quickly submerged in a staining tub with the warmed epoxy blocking buffer. Slides are incubated in the epoxy blocking buffer for 1 hour at 50° C. with periodic shaking to deactivate epoxy binding sites. Next, slides are rinsed and blocked with PBS with 1% OVA at 25° C. for one hour. Serum samples are diluted 1:1000 in PBS with 1% OVA and added to the glycan array for one hour at 25° C. After extensive washing, binding of polyclonal serum antibodies are detected by incubating glycan microarray slides with Cy3-conjugated anti-mouse IgG (Jackson Immunoresearch, West Grove, Pa.) for one hour. Slides are then washed extensively, dried and scanned with a Genepix 4000B scanner (Laser at 100%; gain at 350; 10 μm pixels). Raw data from scanned images are extracted using the Genepix software and analysis of raw data is carried out.
Based on characterization data, anti-STn antibodies developed from Group 6 and Group 8 mice were categorized by anti-STn group number. In some cases, antibodies were assigned to Group 1. Group 1 antibodies according to the invention are antibodies capable of binding AcSTn and GcSTn. Such antibodies may have the ability to associate with a wider range of STn structures. The large oval in FIG. 1A indicates the portion of STn recognized by Group 1 antibodies. […] Also listed in the Table is the antibody Isotype for each antibody as determined by the IsoStrip mouse monoclonal antibody isotyping kit (Roche Diagnostics GmbH, Manheim, Germany).

[3] = test system: STn on bovine submaxillary mucin (BSM); assay: Anti-STn BSM ELISA; format: binding; conditions: BSM ELISA, sodium periodate treated wells
Experimental: (§1) Anti-STn serum titer is determined using a murine anti-STn bovine submaxillary mucin (BSM) ELISA together with serum profiles observed by glycan microarray. 96-well plates are coated with 1 μg/well of BSM and incubated overnight at 4° C. O-acetylation of BSM antigen is removed by treating wells with 0.1 M sodium hydroxide. Specific binding to STn is determined by treatment of wells with sodium periodate. Periodate treatment destroys the C6 side chain of sialic acid; therefore antibodies raised against STn should not bind to periodate-treated wells. Wells are blocked with PBS 1% ovalbumin (OVA). Serum samples to be assayed are serially diluted in PBS 1% OVA. A commercially available mouse anti-STn monoclonal antibody, 3F1 (SBH Sciences, Natick, Mass.) is used as a positive control. This antibody is also serially diluted in PBS with 1% OVA. A pool of serum from naïve wild type mice is used for the preparation of negative control samples. Detection of anti-STn antibodies present in serum is determined using an HRP-conjugated polyclonal goat anti-mouse IgG antibody (Jackson Immunoresearch, West Grove, Pa.). The reaction is stopped by addition of sulfuric acid (1.6 M). Optical densities are measured at 490 nm using a Spectramax microplate reader (Molecular Devices, Sunnyvale, Calif.). The serum titer is obtained by comparison of OD values with a cutoff value calculated as two standard deviations above the mean of optical density values of the negative control. […]
Binding affinities of 18D2 and 18C7 to STn were compared to commercially available anti-STn antibodies using the BSM ELISA assay described in Example 2. […] Antibody binding was determined using HRP-conjugated polyclonal goat anti-mouse IgG antibody (Jackson Immunoresearch Laboratories, West Grove, Pa.). […] Optical densities were measured at 490 nm using a Spectramax microplate reader. […] The half maximal effective concentration (EC50) for each antibody was calculated using a non-linear regression analysis carried out on periodate subtracted data.

[4] = AcSTn-PAA ELISA; format: binding; conditions: 200 ng/well PAA antigen; 1:5 dilutions from 1 μM
Experimental: as §1, with “A commercially available mouse anti-STn monoclonal antibody, 3F1 (SBH Sciences, Natick, Mass.) is used as a positive control. This antibody is also serially diluted in PBS with 1% OVA. A pool of serum from naïve wild type mice is used for the preparation of negative control samples.” left out, “The reaction is stopped by addition of sulfuric acid (1.6 M).” left out
(§2) 18D2 and 18C7 antibodies were further characterized by ELISA comprising antigens other than BSM. […] Binding of anti-STn antibodies was detected using a goat anti-mouse IgG-HRP conjugated antibody (Jackson Immunoresearch Laboratories, West Grove, Pa.). […]

[5] = GcSTn-PAA ELISA; format: binding; conditions: 200 ng/well PAA antigen; 1:5 dilutions from 1 μM
Experimental: as §1, with “A commercially available mouse anti-STn monoclonal antibody, 3F1 (SBH Sciences, Natick, Mass.) is used as a positive control. This antibody is also serially diluted in PBS with 1% OVA. A pool of serum from naïve wild type mice is used for the preparation of negative control samples.” left out, “The reaction is stopped by addition of sulfuric acid (1.6 M).” left out
as §2

With `CC(=O)O[C@H]1C(=O)[C@@]2(C)[C@H]([C@H](OC(=O)c3ccccc3)[C@]3(O)C[C@H](OC(=O)[C@H](O)[C@@H](NC(=O)c4ccccc4)c4ccccc4)C(C)=C1C3(C)C)[C@]1(OC(C)=O)CO[C@@H]1C[C@@H]2O` [Paclitaxel, reference compound] the “Average Tumor Volume” value ([1]; day 1 of treatment) was 112.7 mm^3, the “Average Tumor Volume” value ([1]; day 4 of treatment) was 179.5 mm^3 and the “Average Tumor Volume” value ([1]; day 6 of treatment) was 191.4 mm^3. For the same molecule, the “Average Tumor Volume” value ([1]; day 8 of treatment) was 198.6 mm^3, the “Average Tumor Volume” value ([1]; day 11 of treatment) was 199.8 mm^3 and the “Average Tumor Volume” value ([1]; day 13 of treatment) was 227.0 mm^3. For the same molecule, the “Average Tumor Volume” value ([1]; day 15 of treatment) was 248.4 mm^3, the “Average Tumor Volume” value ([1]; day 18 of treatment) was 290.5 mm^3 and the “Average Tumor Volume” value ([1]; day 20 of treatment) was 328.2 mm^3. The “Average Tumor Volume” value ([1]; day 22) was 331.8 mm^3, the “Average Tumor Volume” value ([1]; day 26) was 344.0 mm^3 and the “Average Tumor Volume” value ([1]; day 27) was 350.1 mm^3. For the same molecule, the “Average Tumor Volume” value ([1]; day 29) was 352.3 mm^3, the “Average Tumor Volume” value ([1]; day 32) was 355.1 mm^3 and the “Average Tumor Volume” value ([1]; day 34) was 358.4 mm^3. The “Average Tumor Volume” value ([1]; day 36) was 282.0 mm^3, the “Average Tumor Volume” value ([1]; day 39) was 267.2 mm^3 and the “Average Tumor Volume” value ([1]; day 41) was 276.4 mm^3.

B1: 18C7: anti-STn monoclonal antibody from mouse #4436; IgG2c κ; SEQ ID NO 4 and 5 (antibody, V domains shown)
VH: QVTLKESGPGILQPSQTLSLTCSFSGFSLSTFGMGVGWIRQPSGKGLEWLAHIWWDDDKYYNPALKSRLTISKDTSKNQVFLKIANVDTADTATYYCARIAYYYGSERDYWGQGTTLTVSS
VL: QIVLTQSPAIMSASPGEKVTMTCSASSSISYMHWYHQKPGTSPKRWIYDTSKLASGVPARFSGSGSGTSYSLTISSMEAEDAATYYCHQRSSYTFGGGTKLEIKR
For B1, the Group [2] was 1 and the “binding to periodate-treated wells” value [3] was “did not bind”.

B2: B72.3: commercial anti-STn antibody, TAG-72 clone B72.3 (Thermo Fisher Scientific) (antibody, chains of the INN, looked up, V domains shown)
VH: QVQLQQSDAELVKPGASVKISCKASGYTFTDHAIHWAKQKPEQGLEWIGYISPGNDDIKYNEKFKGKATLTADKSSSTAYMQLNSLTSEDSAVYFCKRSYYGHWGQGTTLTVSS
VL: DIQMTQSPASLSVSVGETVTITCRASENIYSNLAWYQQKQGKSPQLLVYAATNLADGVPSRFSGSGSGTQYSLKINSLQSEDFGSYYCQHFWGTPYTFGGGTRLEIK
B2 gave an EC50 [4] of 71.3 nM and an EC50 [5] of 27.8 nM.

Reference: US20160264684A1, “GLYCAN-INTERACTING COMPOUNDS AND METHODS OF USE” (SIAMAB THERAPEUTICS, INC., priority 2013, published 2016)
